Data set [1] deals with FVB-2/N^neu transgenic mouse model. Description: Spontaneous breast cancer in FVB-2/N^neu transgenic mouse, tumor growth. The class given is in vivo. Conditions: FVB-2/N^neu mice. The text has this: (§1) Thirty eight- to forty four-week-old female FVB/N^neu mice were obtained from Shanghai Laboratory Animal Center. The animals were housed under specific pathogen-free conditions.

A further data set addresses c-Met (Homo sapiens, UniProt P08581). The following applies: cell-free. The method, then: (§2) The tyrosine kinase activities were determined using enzyme-linked immunosorbant assay (ELISA). The serine/threonine kinase activities were detected by Caliper Mobility Shift Assay on EZ Reader (Caliper Life Sciences, MA) according to the instruction.
(§3) The kinase domain of EGFR, ErbB-2, IGF1R, VEGFR2, FGFR1, PDGFRα, c-Src, c-Met, RON, c-Kit, EphA2 and EphB2 were expressed using the Bac-to-Bac^TM baculovirus expression system (Invitrogen, Carlsbad, CA, USA) and purified on Ni-NTA columns (QIAGEN Inc., Valencia, CA, USA). VEGFR1, PDGFRβ and c-Abl were purchased from Upstate Biotechnology Inc. (Charlottesville, Virginia, USA). […] EGF was purchased from R&D, Minneapolis, […]. Poly(Glu-Tyr)(4:1), the substrate of tyrosine kinase, was from Sigma-Aldrich Corp. St. Louis, MO, USA.
(§4) The tyrosine kinase activities were determined in 96-well ELISA plates (Corning, NY, USA) precoated with 20 μg/mL Poly (Glu,Tyr)4:1. First, 80 μL of 5 μM ATP solution diluted in kinase reaction buffer (50 mM HEPES pH 7.4, 20 mM MgCl2, 0.1 mM MnCl2, 0.2 mM Na3VO4, 1 mM DTT) was added to each well. […] Subsequently, the kinase reaction was initiated by the addition of purified tyrosine kinase proteins diluted in 10 μL of kinase reaction buffer solution. Experiments at each concentration were performed in duplicate. After incubation for 60 min at 37 °C, the plate was washed three times with phosphate buffered saline (PBS) containing 0.1% Tween 20 (T-PBS). Next, 100 μL anti-phosphotyrosine antibody (PY99, 1:500 dilution) diluted in T-PBS containing 5 mg/mL BSA was added. After 30 min incubation at 37 °C, the plate was washed three times as before. Horseradish peroxidase-conjugated goat anti-mouse IgG (100 μL) diluted 1:2000 in T-PBS containing 5 mg/ml BSA was added. The plate was reincubated at 37 °C for 30 min, and then washed with PBS.

The next data set deals with FGFR1 (Homo sapiens, UniProt P11362). The following applies: FGFR1, cell-free. On the procedure: as §2, §3, §4
Another data set deals with EphB2 (Homo sapiens, UniProt P29323). The following applies: EphB2, cell-free. On the procedure:
as §2, §3, §4

The target in a further data set is SYK (Homo sapiens, UniProt P43405). The following applies: cell-free. The method, then: as §2, §3, §4
The target in the next data set is Flt-1 (Homo sapiens, UniProt P17948). The following applies: Flt-1, cell-free. On the procedure: as §2, §3, §4
Another data set concerns the target PDGFRβ (Homo sapiens, UniProt P09619). The following applies: cell-free. On the procedure: as §2, §3, §4
The test system of another data set is NCI-H1975 cells. Put plainly: Cell proliferation SRB assay. The format is cell-based, human. Conditions: NCI-H1975 cells (EGFR T790M/L858R). The method, then: Cell viability was determined using sulforhodamine B assay. IC50 values were determined based on the results of three independent experiments. […] Whole-cell lysates were assayed for total EGFR and phosphorylation of EGFR by immunoblotting. A representative anti-GAPDH immunoblot is shown as a loading control. […] Cell viability was determined using sulforhodamine B assay.
Cell proliferation was evaluated using the SRB (Sulforhodamine B) assay as previously described. Briefly, cells were seeded into 96-well plates and grown for 24 h. […] The medium remained unchanged until the completion of the experiment. The cells were then fixed with 10% precooled trichloroacetic acid (TCA) for 1 h at 4°C and stained for 15 min at room temperature with 100 μL of 4 mg/mL SRB solution (Sigma) in 1% acetic acid. The SRB was then removed, and the cells were quickly rinsed five times with 1% acetic acid. After cells were air-dried, protein-bound dye was dissolved in 150 μL of 10 mmol/L Tris base for 5 min and measured at 515 nm using a multiwell spectrophotometer (VERSAmax, Molecular Devices). […] The IC50 value was obtained by the Logit method and was determined from the results of at least 3 independent tests.
On the technique in general: In SRB staining, fixed cells bind dye roughly in proportion to their protein.

For another data set, the system named is A549 xenograft. Put plainly: Human tumor xenograft model, tumor growth. The class given is in vivo. Conditions: nude mice, p.o. twice daily. On the procedure:
(§5) The mice were housed and maintained under specific-pathogen free (SPF) conditions. All animal procedures were performed according to the protocol approved by the Institutional Animal Care and Use Committee at Shanghai Institute of Materia Medica, Chinese Academy of Sciences (SIMM-AE-DJ-2010-01). Under sterile conditions, well-developed tumors were cut into 1-mm^3 fragments and transplanted s.c. into the right flank of nude mice using a trocar. When the tumor reached a volume reached 100 to 200 mm^3, the mice were randomly assigned into control and treatment groups. […] The sizes of the tumors were measured twice per week using microcalipers. The tumor volume (V) was calculated as follows: V = (length×width^2)/2. The body weights of the mice were observed simultaneously.

For another data set, the system named is Calu-3 xenograft. Put plainly: Human tumor xenograft model, tumor growth. The format is in vivo. The following applies: nude mice, p.o. twice daily. On the procedure:
as §5
(In xenograft studies the graft and the host belong to different species.)

The subject of another data set is HO-8910 xenograft. Put plainly: Human tumor xenograft model, tumor growth. The class given is in vivo. The following applies: nude mice, p.o. twice daily. On the procedure:
as §5

The next data set deals with SK-OV-3 xenograft. Description: Human tumor xenograft model, tumor growth. The class given is in vivo. The following applies: nude mice, p.o. twice daily. On the procedure:
as §5

Another data set addresses T1, EGFR T790M/L858R (Homo sapiens, UniProt P00533, L858R/T790M).
T1 construct: purchased Cell Signaling Technology Inc
Put plainly: In vitro tyrosine kinase assay (ELISA). The format is biochemical. Conditions: EGFR T790M/L858R double mutant, cell-free; means ± SD. On the procedure:
as §2, §3
The tyrosine kinase activities were determined in 96-well ELISA plates (Corning, NY, USA) precoated with 20 μg/mL Poly (Glu,Tyr)4:1. First, 80 μL of 5 μM ATP solution diluted in kinase reaction buffer (50 mM HEPES pH 7.4, 20 mM MgCl2, 0.1 mM MnCl2, 0.2 mM Na3VO4, 1 mM DTT) was added to each well. […] Subsequently, the kinase reaction was initiated by the addition of purified tyrosine kinase proteins diluted in 10 μL of kinase reaction buffer solution. Experiments at each concentration were performed in duplicate. […]
(In an ELISA, binding on a coated surface is turned into a signal by an enzyme label.)

The subject of data set [2] is SK-OV-3 cells transfected with ErbB2 siRNA. Description: SRB assay after ErbB2 siRNA transfection. The format is cell-based, human. Conditions: SK-OV-3, ErbB2 siRNA 50 nmol/L, AST1306 6.25 µmol/L (p<0.05) or 12.5 µmol/L (p<0.01). The text has this:
Small interfering RNA (siRNA) against EGFR or ErbB2, as well as control siRNA, were designed and synthesized by Shanghai GenePharma Co. Ltd. One pair of ErbB2 siRNA (sequence: 5′ […] 3′), and two pairs of EGFR siRNA (#1 sequence: 5′ […] 3′; #2 sequence: 5′ […] 3′) were applied in this study. Different kind of siRNA (final concentration: 50 nmol/L) was transfected to SK-OV-3 cells with oligofectamine reagent (Invitrogen) according to the manufacturer's instruction.

The nature of data set [3]: Body weights in FVB-2/N^neu transgenic mouse study. The class given is in vivo. The following applies: FVB-2/N^neu mice, oral twice daily for 3 wk.
Text: as §1

“Also recorded” adds a separate entry of the source. Some results are limits rather than exact numbers.

T1 sequence (P00533 25-1210 T790M/L858R): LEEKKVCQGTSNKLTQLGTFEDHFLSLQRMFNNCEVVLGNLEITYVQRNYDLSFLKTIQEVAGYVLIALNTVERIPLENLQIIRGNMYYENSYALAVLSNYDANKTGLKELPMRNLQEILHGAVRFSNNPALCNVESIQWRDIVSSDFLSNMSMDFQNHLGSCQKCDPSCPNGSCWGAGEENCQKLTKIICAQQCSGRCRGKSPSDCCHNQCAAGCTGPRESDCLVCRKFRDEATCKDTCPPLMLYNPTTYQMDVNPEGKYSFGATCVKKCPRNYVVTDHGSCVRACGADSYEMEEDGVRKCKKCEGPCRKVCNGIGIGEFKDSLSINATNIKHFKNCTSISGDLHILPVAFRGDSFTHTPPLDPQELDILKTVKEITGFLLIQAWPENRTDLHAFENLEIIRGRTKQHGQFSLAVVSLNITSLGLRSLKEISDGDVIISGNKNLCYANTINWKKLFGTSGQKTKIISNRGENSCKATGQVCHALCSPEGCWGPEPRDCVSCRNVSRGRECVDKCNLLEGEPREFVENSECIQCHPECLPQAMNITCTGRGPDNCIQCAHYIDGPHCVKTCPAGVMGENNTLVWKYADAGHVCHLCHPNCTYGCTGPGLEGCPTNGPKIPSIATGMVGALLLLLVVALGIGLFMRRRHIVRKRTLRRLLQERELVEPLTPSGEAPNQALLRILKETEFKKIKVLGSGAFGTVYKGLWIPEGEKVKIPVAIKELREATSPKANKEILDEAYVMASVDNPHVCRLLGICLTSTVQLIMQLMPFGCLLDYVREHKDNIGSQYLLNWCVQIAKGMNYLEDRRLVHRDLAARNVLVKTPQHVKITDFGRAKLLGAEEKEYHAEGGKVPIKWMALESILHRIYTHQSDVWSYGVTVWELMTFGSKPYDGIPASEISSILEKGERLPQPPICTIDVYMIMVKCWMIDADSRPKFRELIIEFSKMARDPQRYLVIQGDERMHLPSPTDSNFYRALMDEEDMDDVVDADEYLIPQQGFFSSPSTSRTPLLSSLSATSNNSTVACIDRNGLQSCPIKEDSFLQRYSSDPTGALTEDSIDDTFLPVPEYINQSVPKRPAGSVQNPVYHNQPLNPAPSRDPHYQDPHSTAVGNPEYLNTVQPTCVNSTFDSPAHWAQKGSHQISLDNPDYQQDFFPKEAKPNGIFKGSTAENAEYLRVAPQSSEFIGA
c-Met, sequence (P08581 1078-1345 limits assumed): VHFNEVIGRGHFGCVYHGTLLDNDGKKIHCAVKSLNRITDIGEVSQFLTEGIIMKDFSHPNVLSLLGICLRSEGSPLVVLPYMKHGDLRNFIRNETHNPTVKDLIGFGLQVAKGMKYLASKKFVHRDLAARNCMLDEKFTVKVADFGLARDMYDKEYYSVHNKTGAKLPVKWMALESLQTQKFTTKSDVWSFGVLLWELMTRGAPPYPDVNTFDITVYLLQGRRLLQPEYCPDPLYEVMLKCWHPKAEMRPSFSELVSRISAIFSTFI
EphB2, sequence (P29323 621-884 limits assumed): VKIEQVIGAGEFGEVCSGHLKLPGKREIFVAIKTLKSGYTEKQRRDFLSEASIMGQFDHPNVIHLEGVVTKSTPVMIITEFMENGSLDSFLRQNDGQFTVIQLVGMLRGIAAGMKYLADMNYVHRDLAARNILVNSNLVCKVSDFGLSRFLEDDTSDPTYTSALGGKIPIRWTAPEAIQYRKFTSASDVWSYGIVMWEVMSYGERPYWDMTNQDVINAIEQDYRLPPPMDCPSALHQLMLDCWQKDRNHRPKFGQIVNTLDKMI
Flt-1, sequence (P17948 27-1338): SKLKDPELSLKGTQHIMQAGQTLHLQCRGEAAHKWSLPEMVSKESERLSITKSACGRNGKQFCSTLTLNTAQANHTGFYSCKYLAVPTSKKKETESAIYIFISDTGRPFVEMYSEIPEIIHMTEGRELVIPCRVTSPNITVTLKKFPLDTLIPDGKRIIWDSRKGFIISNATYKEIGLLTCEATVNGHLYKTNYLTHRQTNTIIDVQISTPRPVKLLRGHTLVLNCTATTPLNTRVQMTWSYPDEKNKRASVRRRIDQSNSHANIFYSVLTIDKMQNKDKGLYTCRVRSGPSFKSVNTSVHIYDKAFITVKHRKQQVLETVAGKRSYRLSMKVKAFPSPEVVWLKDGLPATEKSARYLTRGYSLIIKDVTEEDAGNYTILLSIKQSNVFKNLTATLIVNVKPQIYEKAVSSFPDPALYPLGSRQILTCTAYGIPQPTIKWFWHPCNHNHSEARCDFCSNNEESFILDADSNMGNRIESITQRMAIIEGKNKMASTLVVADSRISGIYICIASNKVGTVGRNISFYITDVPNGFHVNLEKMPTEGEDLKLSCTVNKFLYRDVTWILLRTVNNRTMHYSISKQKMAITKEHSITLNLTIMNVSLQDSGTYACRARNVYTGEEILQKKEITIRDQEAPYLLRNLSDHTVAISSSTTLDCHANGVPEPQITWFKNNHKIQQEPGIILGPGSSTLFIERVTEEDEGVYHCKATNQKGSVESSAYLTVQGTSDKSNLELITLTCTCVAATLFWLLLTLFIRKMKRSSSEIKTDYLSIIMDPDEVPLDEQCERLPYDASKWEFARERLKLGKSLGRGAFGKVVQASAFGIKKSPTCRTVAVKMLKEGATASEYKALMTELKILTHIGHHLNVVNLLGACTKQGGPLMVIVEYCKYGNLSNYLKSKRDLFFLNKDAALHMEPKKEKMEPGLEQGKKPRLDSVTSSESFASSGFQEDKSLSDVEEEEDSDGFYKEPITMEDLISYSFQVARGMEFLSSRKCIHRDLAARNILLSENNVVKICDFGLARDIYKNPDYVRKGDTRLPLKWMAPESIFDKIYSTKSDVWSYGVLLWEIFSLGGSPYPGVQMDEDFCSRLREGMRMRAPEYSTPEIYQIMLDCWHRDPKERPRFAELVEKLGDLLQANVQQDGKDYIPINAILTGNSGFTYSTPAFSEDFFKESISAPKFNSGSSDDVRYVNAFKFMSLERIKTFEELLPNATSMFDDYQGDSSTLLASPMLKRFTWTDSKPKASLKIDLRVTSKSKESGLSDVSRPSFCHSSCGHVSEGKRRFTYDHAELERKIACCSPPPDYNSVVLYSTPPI
FGFR1, sequence (P11362 478-767 limits assumed): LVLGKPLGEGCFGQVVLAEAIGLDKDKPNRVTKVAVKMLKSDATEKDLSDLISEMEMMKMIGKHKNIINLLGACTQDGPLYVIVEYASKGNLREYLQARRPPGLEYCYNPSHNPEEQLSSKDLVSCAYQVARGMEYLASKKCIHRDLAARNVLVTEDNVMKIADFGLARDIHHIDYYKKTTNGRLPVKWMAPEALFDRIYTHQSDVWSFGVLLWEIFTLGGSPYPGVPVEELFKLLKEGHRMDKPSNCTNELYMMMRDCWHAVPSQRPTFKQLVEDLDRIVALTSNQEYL
PDGFRβ, sequence (P09619 33-1106): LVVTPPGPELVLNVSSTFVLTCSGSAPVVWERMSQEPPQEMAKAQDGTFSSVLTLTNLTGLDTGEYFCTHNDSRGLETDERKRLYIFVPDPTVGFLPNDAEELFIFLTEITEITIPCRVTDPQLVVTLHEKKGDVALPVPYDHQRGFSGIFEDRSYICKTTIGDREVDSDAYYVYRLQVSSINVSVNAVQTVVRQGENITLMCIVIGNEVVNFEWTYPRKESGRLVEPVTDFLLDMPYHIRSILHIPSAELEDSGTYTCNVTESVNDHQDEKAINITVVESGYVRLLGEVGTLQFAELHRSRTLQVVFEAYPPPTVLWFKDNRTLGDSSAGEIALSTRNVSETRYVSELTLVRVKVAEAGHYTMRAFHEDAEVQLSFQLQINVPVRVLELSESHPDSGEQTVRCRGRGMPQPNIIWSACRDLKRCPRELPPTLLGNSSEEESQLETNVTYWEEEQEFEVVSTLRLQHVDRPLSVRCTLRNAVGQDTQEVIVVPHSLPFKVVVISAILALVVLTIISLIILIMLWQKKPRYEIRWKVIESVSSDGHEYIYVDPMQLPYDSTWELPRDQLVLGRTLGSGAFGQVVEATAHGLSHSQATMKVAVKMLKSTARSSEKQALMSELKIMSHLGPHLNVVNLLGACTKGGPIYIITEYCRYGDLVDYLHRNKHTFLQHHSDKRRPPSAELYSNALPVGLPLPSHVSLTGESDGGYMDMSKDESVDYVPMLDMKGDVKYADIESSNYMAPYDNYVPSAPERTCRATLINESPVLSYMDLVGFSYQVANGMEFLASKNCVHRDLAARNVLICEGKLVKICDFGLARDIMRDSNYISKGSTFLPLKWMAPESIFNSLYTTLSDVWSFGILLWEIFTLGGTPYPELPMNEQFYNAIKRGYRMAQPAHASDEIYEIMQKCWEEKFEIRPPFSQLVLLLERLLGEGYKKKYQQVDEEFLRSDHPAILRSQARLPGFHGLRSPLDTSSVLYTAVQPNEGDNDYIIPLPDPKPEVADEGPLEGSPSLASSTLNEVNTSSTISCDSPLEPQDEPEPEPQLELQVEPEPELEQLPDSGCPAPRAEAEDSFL

Turning to `C=CC(=O)Nc1ccc2ncnc(Nc3ccc(OCc4cccc(F)c4)c(Cl)c3)c2c1` [AST1306], the tumor growth result is reported as “dramatic suppression of tumor growth” in data set [1] (oral twice daily for 3 wk); “only slightly suppressed tumor growth” in the data set on A549 xenograft; “dramatic suppression of tumor growth” with Calu-3 xenograft; “only slightly suppressed tumor growth” with HO-8910 xenograft; “dramatic suppression of tumor growth; also recorded: more efficacious than lapatinib” in the data set on SK-OV-3 xenograft. For the same compound, the “tumors after treatment for 11 d” value in data set [1] (oral twice daily, 11 d) is “tumors almost completely disappeared”. For the same compound, the IC50 on c-Met, at FGFR1, against EphB2, at SYK, on Flt-1 and against PDGFRβ was more than 10 µM each time. The compound further showed an IC50 against EGFR T790M/L858R of 0.012 ± 0.002 µM. The “inhibition of cell growth” value in the data set on NCI-H1975 cells is given as “inhibited the growth”. For the same compound, the “tumors after treatment for 7 d” value with SK-OV-3 xenograft (7 d) was “tumors almost completely disappeared”. Moreover, the “sensitivity to antiproliferative effect after ErbB2 knockdown” value in data set [2] is on record as “significantly more resistant”. The “decrease of body weights during treatment” value in data set [3] is “less than 20%”.

As a reminder, the IC50 is the concentration that gives 50% inhibition. The low end stands for higher potency, the high end for lower potency.

The record behind these values is PMC3138742 (PLoS ONE, 2011).
